Test results reported in patent US20220204497A1, “NOVEL COMPOUND HAVING ANTICANCER ACTIVITY, AND METHOD FOR PRODUCING SAME” (MEDICINAL BIOCONVERGENCE RESEARCH CENTER, priority 2019, published 2022).

Tested on: A549 cells
Assay: Cell viability by MTT method in A549 cells
Assay type: cell-based
Set-up: concentration or dose not given beside the values
Details: 72 hours treatment

## Cc1cccc(S(=O)(=O)N[C@@H](Cc2c[nH]c3ccccc23)C(=O)Nc2ccc(N3CCOCC3)cc2)c1 [Compound 65, (S)-3-(1H-indol-3-yl)-2-(3-methylphenylsulfonamido)-N-(4-morpholinophenyl)propanamide]
  Cell Viability (% inhibition) (A549): 74.94 ± 1.04%

## Cc1ccc(S(=O)(=O)N[C@@H](CCCCN)C(=O)Nc2ccc(N3CCOCC3)cc2)cc1 [Compound 169, (S)-6-Amino-2-(4-methylphenylsulfonamido)-N-(4-morpholinophenyl)hexanamide]
  Cell Viability (% inhibition) (A549): 3.97 ± ? .91%

## COc1ccc(-c2csc(NC(=O)[C@H](Cc3c[nH]c4ccccc34)NS(=O)(=O)c3ccc(C(F)(F)F)cc3)n2)cc1 [Compound 212, (S)-3-(1H-indol-3-yl)-N-(4-(4-methoxyphenyl)thiazol-2-yl)-2-(4-(trifluoromethyl)phenylsulfonamido)propanamide]
  Cell Viability (% inhibition) (A549): 84.25 ± 0.99%

## Cc1ccc(S(=O)(=O)N[C@@H](Cn2cnc3ccccc32)C(=O)Nc2ccc(N3CCOCC3)cc2)cc1 [Compound 138, (S)-3-(1H-benzo[d]imidazol-1-yl)-2-(4-methylphenylsulfonamido)-N-(4-morpholinophenyl)propanamide]
  Cell Viability (% inhibition) (A549): 14.63 ± 1.98%

## COc1ccc(-c2csc(NC(=O)[C@H](CNC(=O)c3cccnc3)NS(=O)(=O)c3ccc(C)cc3)n2)cc1 [Compound 231, (S)—N-(3-((4-(4-methoxyphenyl)thiazol-2-yl)amino)-2-(4-methylphenylsulfonamido)-3-oxopropyl)nicotinamide]
  Cell Viability (% inhibition) (A549): 47.63 ± 5.89%

## COc1ccc(CCNC(=O)[C@H](Cc2c[nH]c3ccccc23)NS(=O)(=O)c2ccc(C)cc2)cc1 [Compound 205, (S)-3-(1H-indol-3-yl)-N-(4-methoxyphenethyl)-2-(4-methylphenylsulfonamido)propanamide]
  Cell Viability (% inhibition) (A549): 65.64 ± 5.37%

## Cc1ccc(S(=O)(=O)N[C@H](Cc2c[nH]c3ccccc23)C(=O)Nc2ccc(N3CCOCC3)cc2)cc1 [Compound 76, (R)-3-(1H-indol-3-yl)-2-(4-methylphenylsulfonamido)-N-(4-morpholinophenyl)propanamide]
  Cell Viability (% inhibition) (A549): 63.47 ± 0.82%

## COc1ccc(-c2csc(NC(=O)[C@H](Cc3c[nH]c4ccccc34)NS(=O)(=O)c3ccc(Cl)cc3)n2)cc1 [Compound 211, (S)-2-(4-Chlorophenylsulfonamido)-3-(1H-indol-3-yl)-N-(4-(4-methoxyphenyl)thiazol-2-yl)propanamide]
  Cell Viability (% inhibition) (A549): 83.3 ± 1.04%

## Cc1ccc(S(=O)(=O)N[C@@H](Cc2cn(C=O)c3ccccc23)C(=O)Nc2ccc(N3CCOCC3)cc2)cc1 [Compound 125, (S)-3-(1-Formyl-1H-indol-3-yl)-2-(4-methylphenylsulfonamido)-N-(4-morpholinophenyl)propanamide]
  Cell Viability (% inhibition) (A549): 49.76 ± 2.98%

## O=C(OCc1ccccc1)[C@H](Cc1c[nH]c2ccccc12)NS(=O)(=O)c1ccc(C(F)(F)F)nc1 [Compound 166, (S)-Benzyl 3-(1H-indol-3-yl)-2-(6-(trifluoromethyl)pyridine-3-sulfonamido)propanoate]
  Cell Viability (% inhibition) (A549): 97.48 ± 1%

## COC(=O)c1ccc(-c2csc(NC(=O)[C@H](Cc3c[nH]c4ccccc34)NS(=O)(=O)c3ccc(C)cc3)n2)cc1 [Compound 165, (S)-Methyl 4-(2-(3-(1H-indol-3-yl)-2-(4-methylphenylsulfonamido)propanamido)thiazol-4-yl)benzoate]
  Cell Viability (% inhibition) (A549): 78.22 ± 0.97%

## Cc1ccc(S(=O)(=O)N[C@@H](CC(=O)Nc2ccc([N+](=O)[O-])cc2)C(=O)Nc2ccc(N3CCOCC3)cc2)cc1 [Compound 177, (S)-2-(4-Methylphenylsulfonamido)-N^1-(4-morpholinophenyl)-N^4-(4-nitrophenyl)succinamide]
  Cell Viability (% inhibition) (A549): 53.91 ± 0.92%

## Cc1ccc(S(=O)(=O)N[C@@H](CC(C)C)C(=O)Nc2ccc(N3CCOCC3)cc2)cc1 [Compound 11, (S)-4-methyl-2-(4-methylphenylsulfonamido)-N-(4-morpholinophenyl)pentanamide]
  Cell Viability (% inhibition) (A549): 23.76%
